Patent US5321030A, “Creatine analogs having antiviral activity” (priority 1991, dated 1994)

Columns and labels:
HSV-1 = experiment: Cytopathic effect (CPE) assay, HSV-1; conditions: for effect on percent monolayer cell death, second set of experiments: 0-200 PFU, series of concentrations; for protective effect: no agar overlay, highest concentrations tested
creatine kinase [1] = molecular target: T1, creatine kinase (Oryctolagus cuniculus, UniProt P00563); experiment: Phosphorylation by creatine kinase, coupled assay with pyruvate kinase and LDH; type: biochemical; conditions: 40 mM
T1 sequence (P00563 whole entry): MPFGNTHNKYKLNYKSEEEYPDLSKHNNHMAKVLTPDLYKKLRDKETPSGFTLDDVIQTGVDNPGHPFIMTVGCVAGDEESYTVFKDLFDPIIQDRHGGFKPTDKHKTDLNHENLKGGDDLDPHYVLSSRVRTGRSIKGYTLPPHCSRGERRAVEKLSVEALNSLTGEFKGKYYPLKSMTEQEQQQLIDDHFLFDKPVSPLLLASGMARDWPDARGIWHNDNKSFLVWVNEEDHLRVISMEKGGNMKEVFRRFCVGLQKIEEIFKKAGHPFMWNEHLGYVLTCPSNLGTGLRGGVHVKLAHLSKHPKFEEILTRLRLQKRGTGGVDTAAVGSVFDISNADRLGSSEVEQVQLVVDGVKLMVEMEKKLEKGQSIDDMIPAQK
Description: Compound 5/6 (AM 361), where R=CH3, was prepared as described above and assayed for phosphorylation by creatine kinase in a coupled assay with pyruvate kinase and lactate dehydrogenase (LDH) as described (Bergmeyer, H. U., ed. (1974), In: Methods of Enzymatic Analysis, Second English Edition, Volume 4, (Verlag Chemie Weinheim and Academic Press, Inc.: New York, London) pp. 1772-1779). Each compound listed in Table 11 below was tested at a concentration of 40 mM. Compound 5/6 (AM 361) was slowly phosphorylated.

creatine kinase [2] = molecular target: T1, creatine kinase; conditions: cited from earlier work
[3] = Drug cytotoxicity in CPE assay (monolayer death in absence of virus); conditions: monkey, vero cells
[4] = test system: Vesicular stomatitis virus (VSV), Indiana strain; type: cell-based; conditions: tested in parallel
[5] = test system: Pseudorabies virus, Aujeszky strain; type: cell-based; conditions: similar assay
[6] = test system: Guinea Pig Cytomegalovirus, Strain 22122; experiment: CPE reduction assay, guinea pig cytomegalovirus in GPE cells; type: cell-based; conditions: 12.5 mg/ml
[7] = test system: Varicella-Zoster Virus, strain Oka; experiment: microbe, parasite or virus in culture; type: cell-based; conditions: Human alphaherpesvirus 3, MRC5, read-out: plaque reduction

Compound: 1-carboxymethyl-2-iminomethylimidazolidine [AM 361]
- effect on cytopathic effect (HSV-1; 22.1 mM, Vero cells): reduced the cytopathic effect as compared with the no drug control in wells inoculated with 25 or 50 PFU/well
- virus-induced monolayer death (HSV-1; 44.2 mM, Vero cells, each inoculum 12-200 PFU/well (no drug control 30-90%)): 2%
- effect on cytopathic effect (HSV-1; 18.2-72.7 mM, serum-starved Vero cells, FIG. 17A): inhibited the cytopathic effect
- % Rate of Creatine (creatine kinase [1]): 2.4%
- Δ in Absorbance/min (creatine kinase [1]): 0.041

Compound: Nc1nccn1CC(=O)O [1-carboxymethyl-2-aminoimidazole, reference compound]
- binding to creatine kinase (creatine kinase [2]): an affinity equal to that of cyclocreatine
- initial rate of phosphorylation by creatine kinase, slower (creatine kinase [2]): 5 orders of magnitude
- dose response against cytopathogenicity (HSV-1; Vero cells, 0.31-5.0 mg/ml, FIG. 16): shows no such effect

Compound: N=C1NCCCN1CC(=O)O [1-carboxymethyl-2-iminohexahydropyrimidine, reference compound]
- effect on percent monolayer cell death, second set of experiments (HSV-1; Vero cells): no dose-response or consistent protective effect
- protective effect (HSV-1; Vero cells, 125 PFUs): weak protective effect in some wells

Compound: N=C1NCC(=O)N1CC(=O)O [Compound 7]
- cytotoxicity at 41700 µM [3]: 4%
- antiviral activity (HSV-1; 41.7 mM, Vero cells, 12-200 PFU/well): consistent antiviral activity

Compound: CN=C1NCCN1CC(=O)O [Compound 10a]
- cytotoxicity at 38200 µM [3]: 5%
- effect on monolayer death (HSV-1; 19.1 mM, 12, 50, 100 or 200 PFU/well, not 25 PFU/well): a reduction in monolayer death

Compound: C=CCN=C1NCCN1CC(=O)O [Compound 10b]
- cytotoxicity at 23000 µM [3]: 7%
- cytotoxicity at 45900 µM [3]: 30%
- antiviral effect (HSV-1; 2.58-45.90 mM, Vero cells, 12-200 PFU/well): No consistent antiviral effect

Compound: CCN(CC(=O)O)C(=N)N [EGA, N-ethyl-N-amidinoglycine, reference compound]
- effect on percent monolayer cell death, second set of experiments (HSV-1; Vero cells): no dose-response or consistent protective effect
- protective effect (HSV-1; Vero cells, 125 PFUs): weak protective effect in some wells

Compound: CN(CC(=O)O)C(=N)NP(=O)(O)O [P-creatine, N-phosphorocreatine, reference compound]
- Km (creatine kinase [2]; reverse reaction, without cyclocreatine, read-out: Km of P-creatine): 1800 µM

Compound: NC(=O)c1ncn([C@@H]2O[C@H](CO)[C@@H](O)[C@H]2O)n1 [Ribavirin, reference compound]
- effect on the virus [4]: only a moderate effect

Compound: Nc1ncnc2c1ncn2[C@@H]1O[C@H](CO)[C@@H](O)[C@@H]1O [adenine arabinoside]
- effect against Pseudorabies virus [5]: ineffective

Compound: CC(CC(=O)O)C(=N)N (stereo not shown) [carbocreatine, 3-amidinobutyric acid, reference compound]
- effect on percent monolayer cell death, second set of experiments (HSV-1; Vero cells): no dose-response or consistent protective effect
- protective effect (HSV-1; Vero cells, 125 PFUs): weak protective effect in some wells

Compound: CN(CC(=O)O)C(=N)N [creatine]
- activity (HSV-1; 70 mM, Vero cells, 125 PFUs): some activity
- % Rate of Creatine (creatine kinase [1]): 100%
- Δ in Absorbance/min (creatine kinase [1]): 1.18

Compound: N=C1NCCN1CCC(=O)O [homocyclocreatine, 1-carboxyethyl-2-iminoimidazolidine, reference compound]
- Ave. CPE [6]: 3.7
- inhibition at 1000 µg/mL [7]: 36%
- inhibition at 2000 µg/mL [7]: 39%
- inhibition at 4000 µg/mL [7]: 50%

Compound: N=C(N)NCCC(=O)O [β-guanidinopropionate, β-guanidinopropionic acid, reference compound]
- effect on percent monolayer cell death, second set of experiments (HSV-1; Vero cells): no dose-response or consistent protective effect
- protective effect (HSV-1; Vero cells, 125 PFUs): weak protective effect in some wells

Compound: isoepoxycreatine [reference compound]
- inactivation of creatine kinase (creatine kinase [2]; affinity reagent): completely and irreversibly inactivate creatine kinase
